Key:
[1] = target: truncated human beta-secretase, BACE1 (amino acids 1-454) (Homo sapiens (Human), UniProt P56817); experiment: BACE1 Assay (Assay 1), fluorescence quench assay; format: biochemical; conditions: pH 4.4
Method: The substrate was dissolved at 1 mg/ml in DMSO.
The assay was performed in the presence of OptiMEM™ (supernatant collected over 24 h and cleared from cellular debris by centrifugation) containing the ectodomain of BACE1, 25 μl water containing the desired 2-fold concentration of test compound and 2% DMSO, 1 μM substrate peptide, 20 mM NaOAc, pH 4.4, and 0.04% Triton-X100 in a total assay volume of 50 μl in a 384 well plate. In general, 25 μl of compound dilution were added to the plate followed by the addition of 10 μl of BACE1 containing OptiMEM™ diluted 1:10 in water with 0.2% Triton X-100. The reaction was started with the addition of 15 μl substrate in NaOAc buffer. The reaction was incubated at rt (dark) in an Envision® multilabel reader (Perkin Elmer) and the cleavage of the substrate was recorded as kinetic for […] at ex: 485 nm, em: 538 nm. Blank wells containing no enzyme were included on each plate.
The intensity of fluorescence was regressed against time in order to derive velocities of reaction in all 384 wells. These velocities were used for calculating percent control using an uninhibited control containing 1% DMSO as 100% and a blank control performed in the absence of enzyme as 0%. IC50 values were calculated by fitting percent control vs. test compound concentration using Assay Explorer®.

hERG channel = hERG channel (Homo sapiens (Human), UniProt Q12809); experiment: hERG-Channel Assay (Assay 2), whole-cell patch clamp in HEK293 cells stably transfected with hERG cDNA; format: cell-based; conditions: for inhibition at 10 µM: human, HEK293 cells stably transfected with hERG cDNA, pH 7.4, 35° C.; for % Inhibition hERG @ 10 μM (assay 2): 35° C.
From the text: hERG-Channel Assay (Assay 2)
Cells: HEK (human embryonic kidney) 293 cells were stably transfected with hERG cDNA.
Cells were superfused with a bath solution containing (mM): NaCl (137), KCl (4.0), MgCl2 (1.0), CaCl2 (1.8), Glucose (10), HEPES (10), pH 7.4 with NaOH. Patch pipettes were made from borosilicate glass tubing using a horizontal puller and filled with pipette solution containing (mM): K-aspartate (130), MgCl2 (5.0), EGTA (5.0), K2ATP (4.0), HEPES (10.0), pH 7.2 with KOH. Resistance of the microelectrodes was in the range between 2 and 5 MΩ.
Stimulation and Recording:
Membrane currents were recorded using an EPC-10 patch clamp amplifier and PatchMaster software. hERG-mediated membrane currents were recorded at 35° C., using the whole-cell configuration of the patch-clamp technique. Transfected HEK293 cells were clamped at a holding potential of −60 mV and hERG-mediated inactivating tail currents were elicited using a pulse pattern with fixed amplitudes (activation/inactivation: 40 mV for 2000 ms; recovery: −120 mV for 2 ms; ramp to 40 mV in 2 ms; inactivating tail current: 40 mV for 50 ms) repeated at 15 s intervals. During each inter-pulse interval, 4 pulses scaled down by a factor of 0.2 were recorded for a P/n leak subtraction procedure. Rs compensation was employed up to a level that safely allowed recording devoid of ringing.
Compound Preparation and Application:
The different concentrations of the test compounds were applied sequentially on each of the different cells investigated. A steady state level of baseline current was measured for at least 6 sweeps prior to the application of the first test compound concentration.
The test compound was dissolved in DMSO to yield a master stock solution which was diluted further in DMSO to stock solutions needed for the lower concentrations. Final dilutions in extracellular buffer were prepared freshly from these stocks by a 1:1000 dilution step each before starting the experiments.
Peak current amplitudes were measured 3 ms after the ramp to +40 mV. For baseline and each concentration, the peak currents of the three last sweeps before application of the next concentration were averaged. Residual currents (I/I0) were calculated for each cell as the fraction of actual average peak current and average baseline peak current.

[2] = In Vitro Phospholipidosis Assay (Assay 3), Nile red staining; format: cell-based, human; conditions: human, first effect concentration, U937 cells, read-out: Phospholipidosis FEC IC50 μM (assay 3)
Method: (§1) In Vitro Phospholipidosis Assay (Assay 3)
(§2) The phospholipidogenic potential of test compounds was assayed using the human hematopoetic U937 cell line. The test principle was to analyze the phospholipid content by staining the cells with the fluorescent dye Nile red.
(§3) U937 cells were seeded into cell culture plates at 0.5×10^6 cells/mL in RPMI medium containing 10% FBS, 1% DMSO, and 0.005% gentamicin. The cells were cultivated with or without different concentrations of test compound for 48 h under standard culture conditions.
(§4) For harvesting, the cells were centrifuged at 130×g for 4 min and washed once with PBS. Then, 2×0.5 mL cell suspensions were prepared for non-fixed cell measurement (0.5 mL for propidium iodide (PI) viability measurement and 0.5 mL for Nile red measurement).
(§5) The remaining cells were fixed with 3.7% formaldehyde for 30 min. After a further centrifugation step, cells were resuspended with 1.3 mL Nile red working solution (1 μg/mL) and incubated for 5 min at rt. The cell suspension was washed twice with 3 mL PBS and centrifuged with 130×g for 4 min. The supernatant was discarded and the cells were resuspended with 0.5 mL PBS and kept for flow cytometry measurement.
(§6) For Nile red staining of the 0.5 mL non-fixed cell samples, 50 μL of a ready to use Nile red solution (10 μg/mL) were added per sample. Samples were kept on ice for 5 min. Thereafter, they were washed once with 4 mL PBS (4° C., 250×g for 8 min) and finally resuspended in 400 μL PBS and kept for flow cytometry measurement.
(§7) For the viability measurement, 12.5 μL of the ready to use PI solution (10 μg/mL) were added to the 0.5 mL non-fixed cell suspension. After 15 min of incubation on ice, the samples were measured by flow cytometry using a Coulter Epics XL/MCL flow cytometer.
(§8) The viability of the cells of each sample was determined by flow cytometry measurement of the PI content at channel 2 (568-590 nm). Cut-off gates for the fluorescence-dependent differentiation between live and dead cells were defined based on the analysis of cell culture medium control samples.
(§9) Only samples with a cell viability of >=90% relative to control samples were analyzed for phospholipidosis. Each Nile red sample (non-fixed and fixed samples) was measured by flow cytometry at channel 1 (504-541 nm) and channel 4 (660-680 nm).
(§10) For each channel, relative Nile red fluorescence intensity of a test sample was calculated compared to control samples and expressed as a percentage of control fluorescence intensity. The assessment of the phospholipidogenic potential and the first effective concentration (FEC) of a test compound was done manually based on the fluorescence intensities at both wavelengths for the fixed cells, as well as for the non-fixed cells.

Human Hepatocytes = experiment: In Vitro Hepatocyte Stability Assay (Assay 4); format: in vitro ADME; conditions: predicted blood clearance as percent of hepatic blood flow
Method: In Vitro Hepatocyte Stability Assay (Assay 4)
The metabolic degradation of test compounds was assayed in a hepatocyte suspension. Cryopreserved hepatocytes were incubated in an appropriate buffer system (e.g., Dulbecco's modified eagle medium plus 3.5 μg glucagon/500 mL, 2.5 mg insulin/500 mL and 3.75 mg/500 mL hydrocortison) containing 5% species serum. Following a 30 min preincubation in an incubator (37° C., 10% CO2), 5 μl of test compound solution (80 μM; from 2 mM in DMSO stock solution diluted 1:25 with medium) were added into 395 μl hepatocyte suspension (cell density in the range 0.25−5×10^6 cells/mL, typically 1×10^6 cells/mL; final concentration of test compound final DMSO concentration […]).
The cells were incubated for six h (incubator, orbital shaker) and samples (25 μl) were taken at 0, 0.5, 1, 2, 4 and 6 h. Samples were transferred into acetonitrile and pelleted by centrifugation (5 min). The supernatant was transferred to a new 96 DeepWell™ plate, evaporated under nitrogen and resuspended. Decline of compound was analyzed by HPLC-MS/MS. CLint (in vitro hepatic intrinsic clearance) was calculated as follows: CLint=Dose/AUC=(C0/CD)/(AUD+Clast/k)×1000/60
C0: initial concentration in the incubation [μM];
CD: cell density of vital cells [cells/mL];
AUD: area under the data [μM×h];
Clast: concentration of last data point [μM];
k: slope of the regression line for compound decline [h^−1].
The calculated in vitro hepatic intrinsic clearance was scaled up to the intrinsic in vivo hepatic clearance (Clint in vivo) and used to predict hepatic in vivo blood clearance (CL) by the use of a liver model (well-stirred model), as follows: CLint,in vivo[mL/min/kg]=(CLint[μL/min/10^6 cells]×hepatocellularity[10^6 cells/g liver]×liver factor [g/kg body weight])/1000 CL[mL/min/kg]=CLint,to vivo×hepatic blood flow[ml/min/kg]/(CLint,in vivo[ml/min/kg]+hepatic blood flow[mL/min/kg])
The in vivo blood clearance was transformed into percent of the hepatic blood flow (% Qh): % Qh=CL[mL/min/kg]/hepatic blood flow[mL/min/kg])×100
Hepatocellularity, human: 1.2×10^7 cells/g liver;
Liver factor, human: 25.7 g/kg body weight;
Hepatic blood flow, human: 21 mL/(min×kg).

[3] = test system: human hematopoetic U937 cell line; experiment: In Vitro Phospholipidosis Assay (Assay 3), Nile red staining; format: cell-based; conditions: first effect concentration; U937 cells, 48 h; read-out: Phospholipidosis FEC IC50 μM (assay 3)
Method: as §1, §2, §3, §4, §5, §6, §7, §8, §9, §10

Chain of truncated human beta-secretase, BACE1 (amino acids 1-454) (P56817 22-454): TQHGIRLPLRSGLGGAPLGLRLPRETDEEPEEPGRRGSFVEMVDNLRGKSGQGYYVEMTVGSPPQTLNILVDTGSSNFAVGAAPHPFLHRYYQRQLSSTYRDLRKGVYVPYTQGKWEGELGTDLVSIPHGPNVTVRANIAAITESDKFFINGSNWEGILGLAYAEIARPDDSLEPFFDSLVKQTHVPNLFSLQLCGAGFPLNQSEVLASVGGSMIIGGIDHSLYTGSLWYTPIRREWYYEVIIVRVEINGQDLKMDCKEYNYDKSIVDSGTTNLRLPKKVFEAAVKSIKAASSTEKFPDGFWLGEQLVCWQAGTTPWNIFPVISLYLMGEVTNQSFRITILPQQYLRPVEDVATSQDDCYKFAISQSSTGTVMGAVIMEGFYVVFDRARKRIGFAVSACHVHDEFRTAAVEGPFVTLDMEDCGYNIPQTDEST
Chain of hERG channel (Q12809 whole entry): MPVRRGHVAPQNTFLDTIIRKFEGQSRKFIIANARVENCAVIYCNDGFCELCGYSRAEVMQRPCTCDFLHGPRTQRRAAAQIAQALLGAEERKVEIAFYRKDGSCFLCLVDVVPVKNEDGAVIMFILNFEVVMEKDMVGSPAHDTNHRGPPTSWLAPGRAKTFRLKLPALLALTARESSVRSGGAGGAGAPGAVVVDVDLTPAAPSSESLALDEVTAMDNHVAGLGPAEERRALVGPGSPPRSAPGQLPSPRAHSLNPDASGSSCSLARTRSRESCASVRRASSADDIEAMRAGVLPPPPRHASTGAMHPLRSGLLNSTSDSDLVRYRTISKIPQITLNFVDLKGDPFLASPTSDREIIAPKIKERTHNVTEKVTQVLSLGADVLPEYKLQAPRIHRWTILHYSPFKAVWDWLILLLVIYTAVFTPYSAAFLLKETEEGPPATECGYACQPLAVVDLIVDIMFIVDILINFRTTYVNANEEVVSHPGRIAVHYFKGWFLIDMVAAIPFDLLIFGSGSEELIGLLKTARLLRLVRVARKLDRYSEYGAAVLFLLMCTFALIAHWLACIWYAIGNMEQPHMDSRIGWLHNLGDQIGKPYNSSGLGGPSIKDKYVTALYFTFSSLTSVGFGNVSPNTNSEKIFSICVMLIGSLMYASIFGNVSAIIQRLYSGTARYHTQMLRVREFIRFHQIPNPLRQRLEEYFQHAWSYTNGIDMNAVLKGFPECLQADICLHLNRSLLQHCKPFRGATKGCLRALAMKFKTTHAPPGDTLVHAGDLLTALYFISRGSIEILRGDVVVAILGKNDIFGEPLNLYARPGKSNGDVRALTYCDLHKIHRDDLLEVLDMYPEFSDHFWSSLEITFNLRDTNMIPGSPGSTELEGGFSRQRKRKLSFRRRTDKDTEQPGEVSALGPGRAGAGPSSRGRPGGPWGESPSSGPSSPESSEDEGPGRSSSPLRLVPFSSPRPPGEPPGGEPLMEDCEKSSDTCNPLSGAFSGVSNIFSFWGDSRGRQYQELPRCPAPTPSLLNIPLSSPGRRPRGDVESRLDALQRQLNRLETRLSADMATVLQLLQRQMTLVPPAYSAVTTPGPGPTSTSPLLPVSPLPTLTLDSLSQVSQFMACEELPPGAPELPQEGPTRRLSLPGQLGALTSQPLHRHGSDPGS

Structure (SMILES)	IC50 [1] [nM]	In vitro Human Hepatocytes % Qh @ 1 μM (assay 4) (Human Hepatocytes) [% Qh]	inhibition at 10 µM (hERG channel) [%]	IC50 at 48 h [2] [µM]	% Inhibition hERG @ 10 μM (assay 2) (hERG channel) [%]	IC50 [3] [µM]
Cc1cc(CN2C(=O)[C@]3(N=C2N)c2cc(C#N)ccc2C[C@@]32C[C@@H](C)[C@H](O)[C@@H](C)C2)ccn1.O=C(O)C(F)(F)F [Example 16]	9.4	19	1.4	200	–	–
COC1CCC2(CC1)Cc1ccc(C#CC3CC3)cc1C21N=C(N)N(Cc2cncnc2)C1=O (stereo not drawn) [reference compound]	1.1	36	60	25	–	–
COCCCOc1ccc2c(c1)C1(N=C(N)N(CC(F)F)C1=O)[C@]1(CC[C@H](OC)CC1)C2 (stereo partly drawn) [reference compound]	7.3	43	36	50	–	–

Further lines, with some results ahead:

IC50 [1] [nM]	In vitro Human Hepatocytes % Qh @ 1 μM (assay 4) (Human Hepatocytes) [% Qh]	Structure (SMILES)	inhibition at 10 µM (hERG channel) [%]	IC50 at 48 h [2] [µM]	% Inhibition hERG @ 10 μM (assay 2) (hERG channel) [%]	IC50 [3] [µM]
–	14	COC1CCC2(CC1)Cc1ccc(C#N)cc1[C@]21N=C(N)N(C)C1=O (stereo partly drawn) [drawing 15, reference compound]	–	–	90	400
–	14	COC1CCC2(CC1)Cc1ccc(C#N)cc1[C@]21N=C(N)N(C)C1=O (stereo partly drawn) [drawing 18, reference compound]	–	–	90	400

Reference: US9018391B2, “Inhibitors of beta-secretase” (Boehringer Ingelheim International GmbH, priority 2012, dated 2015)
